{"source": "ChEMBL document CHEMBL5154690", "about": "“Discovery of a tricyclic farnesoid X receptor agonist HEC96719, a clinical candidate for treatment of non-alcoholic steatohepatitis” (Eur J Med Chem, 2022)", "key": {"[1]": {"target": "T1, Bile acid receptor (Homo sapiens, UniProt Q96RI1)", "T1 sequence (Q96RI1 whole entry)": "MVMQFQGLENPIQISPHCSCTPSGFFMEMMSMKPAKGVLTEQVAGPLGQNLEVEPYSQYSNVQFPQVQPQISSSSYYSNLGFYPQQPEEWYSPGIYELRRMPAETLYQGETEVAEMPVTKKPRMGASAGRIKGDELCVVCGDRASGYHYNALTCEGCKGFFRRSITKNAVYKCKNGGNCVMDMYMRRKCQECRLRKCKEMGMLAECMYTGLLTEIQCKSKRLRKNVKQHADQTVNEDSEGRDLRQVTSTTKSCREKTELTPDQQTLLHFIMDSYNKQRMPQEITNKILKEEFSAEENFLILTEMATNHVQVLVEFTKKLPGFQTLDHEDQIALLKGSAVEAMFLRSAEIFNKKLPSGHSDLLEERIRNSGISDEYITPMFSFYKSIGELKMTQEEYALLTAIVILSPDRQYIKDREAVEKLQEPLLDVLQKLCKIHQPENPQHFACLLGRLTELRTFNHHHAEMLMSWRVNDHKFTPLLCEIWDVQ", "experiment": "Agonist activity at human FXR expressed in HEK293T cells by luciferase reporter assay", "assay_type": "cell-based"}, "[2]": {"tested_on": "Mus musculus", "experiment": "Anti-NASH activity against high fat (HF) diet-induced nonalcoholic steatohepatitis in leptin-deficient ob/ob mouse model assessed as reduction in serum TG level at 3 mg/kg, po administered once daily from week 5 to 10", "assay_type": "functional, organism-based"}, "[3]": {"target": "T2, Bile acid receptor (Rattus norvegicus) (UniProt Q62735)", "T2 sequence (whole entry)": "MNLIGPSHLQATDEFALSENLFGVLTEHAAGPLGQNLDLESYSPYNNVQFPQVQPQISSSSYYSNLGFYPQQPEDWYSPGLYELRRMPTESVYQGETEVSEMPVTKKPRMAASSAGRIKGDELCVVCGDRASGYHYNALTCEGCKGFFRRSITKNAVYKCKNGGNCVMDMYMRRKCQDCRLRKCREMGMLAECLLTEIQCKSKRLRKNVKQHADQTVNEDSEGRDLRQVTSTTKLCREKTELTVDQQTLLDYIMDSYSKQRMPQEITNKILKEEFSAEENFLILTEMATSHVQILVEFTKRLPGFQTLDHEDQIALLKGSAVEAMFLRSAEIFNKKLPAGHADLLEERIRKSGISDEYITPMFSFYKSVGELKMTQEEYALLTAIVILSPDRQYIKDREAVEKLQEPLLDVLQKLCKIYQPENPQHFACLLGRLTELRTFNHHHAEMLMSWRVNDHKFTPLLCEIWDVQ", "experiment": "In vivo activation of FXR in male Sprague-Dawley rat assessed as fold increase in FGF15 level at 5 mg/kg, po administered once daily for 14 days measured at 6 hrs by ELISA", "assay_type": "functional, organism-based", "settings": "time 14.0 day"}, "[4]": {"tested_on": "Mus musculus", "experiment": "Anti-NASH activity against high fat (HF) diet-induced nonalcoholic steatohepatitis in leptin-deficient ob/ob mouse model assessed as reduction in serum TG level at 0.1 to 1 mg/kg, po administered once daily from week 5 to 10", "assay_type": "functional, organism-based", "settings": "dose 0.1-1 mg/kg"}, "[5]": {"tested_on": "Mus musculus", "experiment": "Anti-NASH activity in western style diet-induced nonalcoholic steatohepatitis model of male C57BL/6 mouse assessed as reduction in serum ALT level at 1 mg/kg, po administered once daily from week 32 to 44", "assay_type": "functional, organism-based"}, "[6]": {"experiment": "Drug metabolism in plasma of Sprague-Dawley rat assessed as production of toxic metabolites at 4.5 mg/kg, po administered as C14-lableled compound with single dose", "assay_type": "ADME, organism-based", "settings": "in vivo"}, "[7]": {"experiment": "Drug recovery in spleen of male Sprague-Dawley rat at 4.5 mg/kg, po administered as C14-lableled compound and assessed as radioactivity and measured at 0.25 hrs", "assay_type": "ADME, organism-based", "settings": "in vivo"}, "[8]": {"experiment": "Drug recovery in liver of male Sprague-Dawley rat at 4.5 mg/kg, po administered as C14-lableled compound and assessed as radioactivity and measured at 1 hr", "assay_type": "ADME, organism-based", "settings": "in vivo"}, "[9]": {"experiment": "Ratio of drug level in skin to plasma in male Sprague-Dawley rat at 4.5 mg/kg, po administered as C14-lableled compound and measured at 0.25 to 6 hrs", "assay_type": "ADME, organism-based", "settings": "other tissue, time 0.25-6 hrs"}}, "note": "The source made the active and inactive calls. No cut-off for these calls is given here.", "data": [{"smiles": "O=C(O)c1ccc2c(c1)Oc1ccc(OCc3c(-c4c(Cl)cccc4Cl)noc3C3CC3)nc1C1(CC1)C2", "values": [{"measurement": "EC50", "setting": "[1]", "value": 1.55, "unit": "nM"}, {"measurement": "Activity", "setting": "[2]", "value": "Active"}, {"measurement": "fold change (FC)", "setting": "[3]", "value": 18}, {"measurement": "Activity", "setting": "[4]", "value": "Active"}, {"measurement": "Activity", "setting": "[5]", "value": "Active"}, {"measurement": "Drug metabolism", "setting": "[6]", "value": "Metabolite_Notdetected"}, {"measurement": "Drug recovery", "setting": "[7]", "value": 192, "unit": "ngequiv/g"}, {"measurement": "Drug recovery", "setting": "[8]", "value": 6520, "unit": "ngequiv/g"}, {"measurement": "Ratio", "setting": "[9]", "value": 0.56}]}]}
